According to PMC6264142, “Microwave Assisted Organic Synthesis (MAOS) of Small Molecules as Potential HIV-1 Integrase Inhibitors” (Molecules, 2011):

Key:
[1] = target: T1, HIV-1 integrase (strand transfer step) (Human immunodeficiency virus type 1 group M subtype B, UniProt P04585); assay: Strand transfer assay (ELISA); format: biochemical; conditions: concentration required to inhibit the in vitro strand transfer step by 50%; read-out: IN enzymatic activity (IC50) ST
T1 construct: To determine the susceptibility of the HIV-1 integrase enzyme towards different compounds
Description: (§1) Overall integrase assay using an enzyme-linked immunosorbent assay (ELISA): To determine the susceptibility of the HIV-1 integrase enzyme towards different compounds we used enzyme-linked immunosorbent assays. These assays use an oligonucleotide substrate of which one oligonucleotide (5’-[…]-3’) is labeled with biotin at the 3’ end and the other oligonucleotide is labeled with digoxigenin at the 5’ end. For the overall integration assay the second 5’-digoxigenin labeled oligonucleotide is (5’-[…] […]-3’). For the Strand Transfer assay the second oligonucleotide lacks GT at the 3’ end. The integrase enzyme was diluted in 750 mM NaCl, 10 mM Tris pH 7.6, 10% glycerol, and 1 mM β-mercaptoethanol. To perform the reaction, diluted integrase (4 µL, corresponding to a concentration of 1.6 µM) and annealed oligonucleotides (4 µL, 7 nM) were added in a final reaction volume of 40 µL containing 10 mM MgCl2, 5 mM DTT, 20 mM HEPES pH 7.5, 5% PEG, and 15% DMSO. The reaction was carried out for 1 h at 37 °C. Reaction products were denatured with 30 mM NaOH and detected by an immunosorbent assay on avidin-coated plates.

HIV-1 integrase = target: T2, HIV-1 integrase (Human immunodeficiency virus type 1 group M subtype B, UniProt P04585); assay: Overall integrase assay (ELISA); format: biochemical; conditions: concentration required to inhibit the in vitro overall integrase activity by 50%; read-out: IN enzymatic activity (IC50) Overall
T2 construct: To determine the susceptibility of the HIV-1 integrase enzyme towards different compounds
Description: as §1

[2] = system: HIV(IIIB) strain in MT-4 cells; assay: MT-4/MTT assay, HIV-induced cytopathic effect; format: cell-based, HIV-1; conditions: for EC50: Human immunodeficiency virus 1, IIIB, MT4, 50% protection against CPE of HIV, read-out: EC50 against HIV-1 replication in cell cultures
Method: In vitro anti-HIV and drug susceptibility assays: The inhibitory effect of antiviral drugs on the HIV-induced cytopathic effect (CPE) in human lymphocyte MT-4 cell culture was determined by the MT-4/MTT-assay. This assay is based on the reduction of the yellow 3-(4,5-dimethylthiazol-2-yl)-2,5-diphenyltetrazolium bromide (MTT) by mitochondrial dehydrogenase of metabolically active cells to a blue formazan derivative, which can be measured spectrophotometrically. The 50% cell culture infective dose (CCID50) of the HIV(IIIB) strain was determined by titration of the virus stock using MT-4 cells. For the drug-susceptibility assays, MT-4 cells were infected with 100–300 CCID50 of the virus stock in the presence of fivefold serial dilutions of the antiviral drugs. The concentration of the various compounds that achieved 50% protection against the CPE of the different HIV strains, which is defined as the EC50, was determined. In parallel, the 50% cytotoxic concentration (CC50) was determined.

HIV-IN = system: HIV-IN; parameters: method as in PMID 19385721, PMID 20112170; conditions: HIV-IN inhibitor; cited from earlier work

Structure (SMILES) | IC50 [1] [µM] | IC50 (HIV-1 integrase) [µM] | melting point [°C] | EC50 [2] [µM] | selectivity index (SI) ([2]; ratio of EC50 and CC50 values) | IC50 (HIV-IN) [µM]
COc1cccc2c1c(C(=O)/C=C(\O)C(=O)O)cn2Cc1ccc(F)cc1 [CHI-1043, reference compound] | 0.14 ± 0.11 | 0.08 ± 0.003 | – | – | – | –
COc1cccc2c1c(C(=O)C=C(O)C(=O)O)cn2Cc1ccccc1C [Compound 7a, 4-[1-(2-Methylbenzyl)-4-methoxy-1H-indol-3-yl]-2-hydroxy-4-oxobut-2-enoic acid] | 1.07 ± 0.76 | 1.74 ± 1.32 | 164 to 166 | 1.74 | 43 | –
COc1cccc2c1c(C(=O)C=C(O)C(=O)O)cn2Cc1cccc(C)c1 [Compound 7b, 4-[1-(3-Methylbenzyl)-4-methoxy-1H-indol-3-yl]-2-hydroxy-4-oxobut-2-enoic acid] | 1.36 ± 0.64 | 0.42 ± 0.29 | 150 to 152 | 2.14 | – | –
COc1cccc2c1c(C(=O)C=C(O)C(=O)O)cn2Cc1ccc(C)cc1 [Compound 7c, 4-[1-(4-Methylbenzyl)-4-methoxy-1H-indol-3-yl]-2-hydroxy-4-oxobut-2-enoic acid] | 8.84 ± 5.6 | 5.76 ± 1.82 | 141 to 143 | – | – | –
COc1cccc2c1c(C(=O)C=C(O)C(=O)O)cn2Cc1cccc(C)c1C [Compound 7d, 4-[1-(2,3-Dimethylbenzyl)-4-methoxy-1H-indol-3-yl]-2-hydroxy-4-oxobut-2-enoic acid] | 6.79 ± 0.64 | 2.61 ± 1.17 | 160 to 162 | 1.74 | – | –
COc1cccc2c1c(C(=O)C=C(O)C(=O)O)cn2Cc1ccc(C)cc1C [Compound 7e, 4-[1-(2,4-Dimethylbenzyl)-4-methoxy-1H-indol-3-yl]-2-hydroxy-4-oxobut-2-enoic acid] | 55.9 ± 43.8 | 51.8 ± 33.8 | 143 to 145 | – | – | –
COc1cccc2c1c(C(=O)C=C(O)C(=O)O)cn2Cc1cc(C)ccc1C [Compound 7f, 4-[1-(2,5-Dimethylbenzyl)-4-methoxy-1H-indol-3-yl]-2-hydroxy-4-oxobut-2-enoic acid] | 9.47 ± 1.06 | 3.83 ± 2.21 | 163 to 165 | – | – | –
COc1cccc2c1c(C(=O)C=C(O)C(=O)O)cn2Cc1c(C)cccc1C [Compound 7g, 4-[1-(2,6-Dimethylbenzyl)-4-methoxy-1H-indol-3-yl]-2-hydroxy-4-oxobut-2-enoic acid] | 23.5 ± 17.8 | 7.34 ± 1.32 | 173 to 175 | – | – | –
COc1cccc2c1c(C(=O)C=C(O)C(=O)O)cn2Cc1cc(C)cc(C)c1 [Compound 7h, 4-[1-(3,5-Dimethylbenzyl)-4-methoxy-1H-indol-3-yl]-2-hydroxy-4-oxobut-2-enoic acid] | 5.49 ± 2.67 | 7.69 ± 5.59 | 120 to 122 | – | – | –
COc1cccc2c1c(C(=O)C=C(O)C(=O)O)cn2Cc1cc(C)c(F)c(C)c1 [Compound 7i, 4-[1-(4-Fluoro-3,5-dimethylbenzyl)-4-methoxy-1H-indol-3-yl]-2-hydroxy-4-oxobut-2-enoic acid] | 5.24 ± 1.34 | 2.17 ± 1.65 | 153 to 155 | – | – | –
Cc1nnc(C(=O)NC(C)(C)c2nc(C(=O)NCc3ccc(F)cc3)c(O)c(=O)n2C)o1 [raltegravir] | – | – | – | – | – | 0.0068
